Experimental findings from patent publication US20240376435A1, “KIDNEY ORGANOID AND METHOD FOR PRODUCING SAME” (OTSUKA PHARMACEUTICAL CO., LTD., priority 2021, published 2024) are described below.

For test [1], the system named is PPARA downstream gene group. The test is described as follows: Expression level of PPARA downstream gene group in kidney organoid (LTL MACS, quantitative PCR). Format: cell-based, human. Conditions: agonist singly at 1 μM, eight days from day 15; among Control, CP1 and 9cisRA1 groups. As to the method: The kidney organoid was transferred to a centrifuge tube, and a cell dissociation solution (DPBS (+), 5 mg/mL Bacillus Licheniformis Protease (Sigma-Aldrich), 125 U/mL DNasc (Roche)) was added to the centrifuge tube. Up to 12 organoids were placed in one centrifuge tube. The centrifuge tube was incubated at 6° C. for 30 minutes. During the 30-minute incubation, pipetting was performed every five minutes to prepare a cell suspension containing cells separated from the organoids. To 1 mL of the obtained cell suspension, 4 mL of ice-cold diluted solution A (DPBS (−), 0.5% FBS, 2 mM EDTA, 125 U/mL DNase) was added. The centrifuge tube containing the diluted cell suspension was centrifuged at 300 rcf and 4° C. for 10 minutes, and the supernatant was removed. An ice-cooled diluted solution A was added to the precipitate for resuspension. […]
Total RNA was extracted from the obtained cell suspension containing LTL-positive proximal tubular cells with a Purelink RNA micro kit (Thermofisher Scientific Inc.). […] The synthesized cDNA was quantified by real-time PCR with TB Green® Premix Ex Taq™ II (Tli RNase H Plus) (TaKaRa Bio Inc.). Expression level analysis was performed using this quantitative PCR. […]

The test system of test [2] is proximal tubule marker genes. Kind of test: Expression level of proximal tubule marker genes in kidney organoid (LTL MACS, quantitative PCR). Format: cell-based, human. Conditions: for expression levels of almost all proximal tubule marker genes: agonist singly at 1 μM, eight days from day 15, among Control, CP1 and 9cisRA1 groups; for expression levels of maturation markers of proximal tubular cells: ACE2, AQP6, CUBN. On the procedure:
The kidney organoid was transferred to a centrifuge tube, and a cell dissociation solution (DPBS (+), 5 mg/mL Bacillus Licheniformis Protease (Sigma-Aldrich), 125 U/mL DNasc (Roche)) was added to the centrifuge tube. Up to 12 organoids were placed in one centrifuge tube. The centrifuge tube was incubated at 6° C. for 30 minutes. During the 30-minute incubation, pipetting was performed every five minutes to prepare a cell suspension containing cells separated from the organoids. To 1 mL of the obtained cell suspension, 4 mL of ice-cold diluted solution A (DPBS (−), 0.5% FBS, 2 mM EDTA, 125 U/mL DNase) was added. The centrifuge tube containing the diluted cell suspension was centrifuged at 300 rcf and 4° C. for 10 minutes, and the supernatant was removed. An ice-cooled diluted solution A was added to the precipitate for resuspension. The cell suspension was centrifuged again and the precipitate was resuspended in the diluted solution A. The obtained cell suspension was transferred to a tube with a 35 μm filter (Falcon) and passed through the filter to prepare a cell suspension containing single cells.
LTL-biotin (1:50) was added to the prepared cell suspension containing single cells and incubated at 4° C. for 15 minutes. Thereafter, the cell suspension was centrifuged at 300 rcf and 4° C. for five minutes, and the supernatant was removed. An ice-cooled diluted solution A was added to the precipitate for resuspension. Centrifuging the cell suspension and obtaining a cell suspension from the precipitate were performed two more times. Anti-biotin microBeads Ultra-Pure was added to the obtained cell suspension in the diluted solution A and incubated at 4° C. for 15 minutes. Thereafter, the cell suspension was centrifuged at 300 ref and 4° C. for five minutes, and the supernatant was removed. The ice-cooled diluted solution A was added to the precipitate for resuspension. This operation was repeated two more times. From the obtained cell suspension in the diluted solution A, cells to which LTL binds (also referred to as LTL-binding cells or LTL-positive cells) were obtained by a MACS method. More specifically, the cell suspension was applied to an MS column (Miltenyi Biotec B.V. & Co. KG) fixed in a magnetic field, and LTL-positive proximal tubular cells were obtained as a positive fraction.
Total RNA was extracted from the obtained cell suspension containing LTL-positive proximal tubular cells with a Purelink RNA micro kit (Thermofisher Scientific Inc.). Using total RNA obtained as a template, cDNA synthesis was performed using PrimeScript™ RTmastermix (Perfect Real Time) (Takara Bio Inc.). The synthesized cDNA was quantified by real-time PCR with TB Green® Premix Ex Taq™ II (Tli RNase H Plus) (TaKaRa Bio Inc.). Expression level analysis was performed using this quantitative PCR.
On the 15th day of differentiation induction, the induction medium C was replaced with STEMdiff APEL2 medium (0.3 μM CP775146, 1 μM 9-cis retinoic acid, 1% PFHM II, Antibiotic-Antimycotic), and the obtained early kidney organoids were further cultured for eight days (until the 23rd day of differentiation induction).
On the 23rd day of differentiation induction, the degree of maturation of the proximal tubule was examined. The degree of maturation was determined based on the expression level of maturation markers of proximal tubular cells in the kidney organoid by the MACS method with LTL.
In the step C, CP1 group was prepared by culturing, for eight days, the kidney organoid on the 15th day of differentiation induction in STEMdiff APEL2 medium (1 μM CP775146, 1% PFHM II, Antibiotic-Antimycotic), which is a medium obtained by removing retinoic acid from the induction medium C. […]

`CC1=C(/C=C/C(C)=C\C=C\C(C)=C\C(=O)O)C(C)(C)CCC1` [9-cis retinoic acid]: in test [1], the “expression levels of almost all PPARA downstream gene groups” value is “No significant difference”. In addition, the “expression levels of almost all proximal tubule marker genes” value in test [2] is “No significant difference”.
For the compound `Cc1cccc(Nc2cc(Cl)nc(SCC(=O)O)n2)c1C` [pirinic acid], the “expression of proximal tubule markers” value in test [2] (Example 9, pirinic acid alone in step C, n=3) is given as “increased”.
For `CC(C)c1ccc(CC(=O)N2CCC[C@@H](c3cccc(OC(C)(C)C(=O)O)c3)C2)cc1` [CP775146], the “expression levels of almost all PPARA downstream gene groups” value in test [1] is “No significant difference”. Further, the “expression levels of almost all proximal tubule marker genes” value in test [2] is on record as “No significant difference”.
Regarding `CCC(=O)NC[C@H](Cc1ccc(OCCc2nc(-c3ccccc3)oc2C)cc1)N/C(C)=C\C(=O)c1ccc(C(F)(F)F)cc1` [GW6471], the “expression levels of maturation markers of proximal tubular cells” value in test [2] (Comparative Example 1, PPARA antagonist at a predetermined concentration in step C, vs control, UGT2A3, AZGP1, BHMT, LRP2, ABCB1, APOA1, APOC3, FABP1) is “significantly decreased”; in test [2] (Comparative Example 2, RXR antagonist in step C, vs control, UGT2A3, AZGP1, SLC39A4, BHMT, LRP2, ABCB1, APOA1, APOC3, CYP27A1, FABP1) it was “significantly decreased”. Further, the “expression levels of SLC39A4 and CYP27A1” value in test [2] (Comparative Example 1, PPARA antagonist in step C, vs control) is “tendency for the expression levels of SLC39A4 (FIG. 12c) and CYP27A1 (FIG. 12l) to decrease”.
